# Read-outs that look alike come from different tables or passages of the source.
# Tests used:
# physchem = details: for solubility: pH 7, aqueous buffer, kinetic from dmso stock
# Procedure: Determination of the Kinetic Solubility in Phosphate Buffer
# After shaking for approximately 30 seconds the reduction in light transmission of these samples, at 650 nm, was measured (Molecular Devices Spectromax UV/visible spectrophotometer). A second measurement was taken at approximately 30 seconds later.
# [1] = Determination of thermodynamic solubility in phosphate buffer; assay type: physicochemical; details: pH 7.4, aqueous buffer, thermodynamic from solid, ammonium phosphate buffer pH7.4, 290 mOsm, 37° C., nominal 1 mg/mL, read-out: Solubility in PO4 buffer
# Procedure: Determination of Thermodynamic Solubility in Phosphate Buffer
# The thermodynamic solubility of compound was determined in Ammonium Phosphate Buffer (pH7.4, 290 mOsm). Compounds were made up at a nominal concentration of 1 mg/mL, vortexed then placed on a shaker for 1 h, 37° C. at approximately 950 rpm. Following incubation samples were transferred to eppendorf tubes and centrifuged at 15,000 g (r.c.f.) for 10 minutes at 37° C. The concentration of compound in the supernatant was determined by LC-MS/MS analysis using a calibration line prepared from a DMSO stock.
# Human plasma kallikrein = Human plasma kallikrein (Homo sapiens (Human), UniProt P03952); assay: Determination of the IC50 for plasma kallikrein; assay type: biochemical; details: 37° C., read-out: IC50 (human PKal)
# Human plasma kallikrein, sequence (P03952 391-638): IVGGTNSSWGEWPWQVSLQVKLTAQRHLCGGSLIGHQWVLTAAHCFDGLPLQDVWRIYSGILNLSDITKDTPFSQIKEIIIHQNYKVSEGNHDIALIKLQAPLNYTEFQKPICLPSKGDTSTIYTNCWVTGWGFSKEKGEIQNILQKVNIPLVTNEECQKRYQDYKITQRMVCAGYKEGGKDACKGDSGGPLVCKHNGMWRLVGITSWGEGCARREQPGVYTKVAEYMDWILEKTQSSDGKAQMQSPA
# Human plasma kallikrein, sequence (P03952 20-390 partner): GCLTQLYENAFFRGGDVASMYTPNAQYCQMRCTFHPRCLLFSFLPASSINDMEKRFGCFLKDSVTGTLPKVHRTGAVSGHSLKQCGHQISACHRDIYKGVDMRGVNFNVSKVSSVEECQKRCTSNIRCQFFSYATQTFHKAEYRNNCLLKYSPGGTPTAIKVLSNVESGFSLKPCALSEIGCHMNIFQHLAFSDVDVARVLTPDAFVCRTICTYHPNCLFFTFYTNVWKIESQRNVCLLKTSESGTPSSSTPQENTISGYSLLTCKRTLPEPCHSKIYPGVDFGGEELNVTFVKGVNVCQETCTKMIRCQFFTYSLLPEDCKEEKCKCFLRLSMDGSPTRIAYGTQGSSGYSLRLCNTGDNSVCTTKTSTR
# Procedure, shortened: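 Residual activity (initial rate, absorbance at 410 nm) gave the IC50. Reactions at 37° C combined human plasma kallikrein, substrate H-DPro-Phe-Arg-AFC and a range of inhibitor concentrations.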
# Human KLK1 = Human KLK1 (Homo sapiens (Human), UniProt P06870); assay: Determination of the IC50 for KLK1; assay type: biochemical; details: Human KLK1, 37° C., substrate H-DVal-Leu-Arg-AFC
# Human KLK1, sequence (P06870 25-262): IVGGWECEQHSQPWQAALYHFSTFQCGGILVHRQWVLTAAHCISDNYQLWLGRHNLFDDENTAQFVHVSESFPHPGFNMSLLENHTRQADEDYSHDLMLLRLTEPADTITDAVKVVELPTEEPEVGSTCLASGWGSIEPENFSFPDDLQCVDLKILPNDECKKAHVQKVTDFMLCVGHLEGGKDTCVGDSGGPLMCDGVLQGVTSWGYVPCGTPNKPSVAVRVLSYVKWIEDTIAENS
# Procedure, shortened: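 Human KLK1 incubated at 37° C with fluorogenic substrate H-DVal-Leu-Arg-AFC and a range of test compound concentrations. Residual activity taken as initial reaction rate from absorbance change at 410 nm; IC50 derived from these rates.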
# Factor XIIa = Factor XIIa (Homo sapiens (Human), UniProt P00748); assay: Determination of enzyme selectivity: Factor XIIa; assay type: biochemical; details: fluorogenic substrate at Km concentration
# Factor XIIa, sequence (P00748 373-615): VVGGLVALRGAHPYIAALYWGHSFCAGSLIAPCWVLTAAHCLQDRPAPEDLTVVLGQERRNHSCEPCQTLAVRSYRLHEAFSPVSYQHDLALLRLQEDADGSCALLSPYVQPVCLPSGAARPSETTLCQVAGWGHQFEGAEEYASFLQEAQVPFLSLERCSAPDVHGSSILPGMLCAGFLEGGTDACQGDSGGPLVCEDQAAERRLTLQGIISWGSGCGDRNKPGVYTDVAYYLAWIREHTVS
# Procedure: Determination of Enzyme Selectivity
# Human serine protease enzymes plasmin, thrombin, trypsin, Factor Xa and Factor XIIa were assayed for enzymatic activity using an appropriate fluorogenic substrate. Protease activity was measured by monitoring the accumulation of liberated fluorescence from the substrate over 5 minutes. The linear rate of fluorescence increase per minute was expressed as percentage (%) activity. The Km for the cleavage of each substrate was determined by standard transformation of the Michaelis-Menten equation.
# [2] = fluorogenic substrate H-DPro-Phe-Arg-AFC
solubility in PO4 buffer (physchem; pH 7) [µM],solubility at 1 h [1] [µg/mL],IC50 (Human plasma kallikrein; [2]) [nM],IC50 (Human KLK1; Table 12) [µM],solubility (physchem) [µM],IC50 (Human plasma kallikrein; substrate H-DPro-Phe-Arg-AFC) [nM],IC50 (Human KLK1; Table 13) [µM],IC50 (Factor XIIa) [µM],Compound
> 235,14.6,47,> 10,–,–,–,–,"CCOc1ccc(C[C@@H](NC(=O)c2ccccc2)C(=O)N(C)[C@@H](Cc2ccccc2)C(=O)NCc2ccc(CN)cc2)cc1 [Example 38, N-[(R)-1-{[(S)-1-(4-Aminomethyl-benzylcarbamoyl)-2-phenyl-ethyl]-methyl-carbamoyl}-2-(4-ethoxy-phenyl)-ethyl]-benzamide]"
–,0.8,83,–,12,–,–,–,"CCOc1ccc(C[C@@H](NC(=O)c2cccc3ccccc23)C(=O)N[C@@H](Cc2ccccc2)C(=O)NCc2ccc(CN)cc2)cc1 [Example 54, Naphthalene-1-carboxylic acid [(R)-1-[(S)-1-(4-aminomethyl-benzylcarbamoyl)-2-phenyl-ethylcarbamoyl]-2-(4-ethoxy-phenyl)-ethyl]-amide]"
–,1.5,31,–,36,–,–,–,"CCOc1ccc(C[C@@H](NC(=O)c2ccc(Cl)cc2)C(=O)N[C@@H](Cc2ccccc2)C(=O)NCc2ccc(CN)cc2)cc1 [Example 55, N-[(R)-1-[(S)-1-(4-Aminomethyl-benzylcarbamoyl)-2-phenyl-ethylcarbamoyl]-2-(4-ethoxy-phenyl)-ethyl]-4-chloro-benzamide]"
–,0.9,500,–,36,–,–,–,"CCOc1ccc(C[C@@H](NC(=O)c2ccc(C(F)(F)F)cc2)C(=O)N[C@@H](Cc2ccccc2)C(=O)NCc2ccc(CN)cc2)cc1 [Example 56, N-[(R)-1-[(S)-1-(4-Aminomethyl-benzylcarbamoyl)-2-phenyl-ethylcarbamoyl]-2-(4-ethoxy-phenyl)-ethyl]-4-trifluoromethyl-benzamide]"
–,4.1,170,–,36,–,–,–,"CCOc1ccc(C[C@@H](NC(=O)c2ccc(Cl)cc2Cl)C(=O)N[C@@H](Cc2ccccc2)C(=O)NCc2ccc(CN)cc2)cc1 [Example 58, N-[(R)-1-[(S)-1-(4-Aminomethyl-benzylcarbamoyl)-2-phenyl-ethylcarbamoyl]-2-(4-ethoxy-phenyl)-ethyl]-2,4-dichloro-benzamide]"
–,7.7,78,–,36,–,–,–,"CCOc1ccc(C[C@@H](NC(=O)c2ccc(F)c(F)c2)C(=O)N[C@@H](Cc2ccccc2)C(=O)NCc2ccc(CN)cc2)cc1 [Example 59, N-[(R)-1-[(S)-1-(4-Aminomethyl-benzylcarbamoyl)-2-phenyl-ethylcarbamoyl]-2-(4-ethoxy-phenyl)-ethyl]-3,4-difluoro-benzamide]"
–,–,–,–,–,2080,> 10,> 10,"CCOc1ccc(C[C@@H](NC(=O)C23CC4CC(CC(C4)C2)C3)C(=O)N[C@@H](Cc2ccccc2)C(=O)NCc2ccc(CN)cc2)cc1 [Example 91, Adamantane-1-carboxylic acid [(R)-1-[(S)-1-(4-aminomethyl-benzylcarbamoyl)-2-phenyl-ethylcarbamoyl]-2-(4-ethoxy-phenyl)-ethyl]-amide]"
–,–,–,–,–,1080,> 10,> 10,"CCOc1ccc(C[C@@H](NC(=O)c2cc(Cl)cc(Cl)c2)C(=O)N[C@@H](Cc2ccccc2)C(=O)NCc2ccc(CN)cc2)cc1 [Example 94, N-[(R)-1-[(S)-1-(4-Aminomethyl-benzylcarbamoyl)-2-phenyl-ethylcarbamoy]-2-(4-ethoxy-phenyl)-ethyl]-3,5-dichloro-benzamide]"
–,–,–,–,–,764,> 10,> 10,"CCOc1ccc(C[C@@H](NC(=O)/C=C/c2ccccc2)C(=O)N[C@@H](Cc2ccccc2)C(=O)NCc2ccc(CN)cc2)cc1 [Example 96, (E)-N-[(R)-1-[(S)-1-(4-Aminomethyl-benzylcarbamoyl)-2-phenyl-ethylcarbamoyl]-2-(4-ethoxy-phenyl)-ethyl]-3-phenyl-acrylamide]"
–,1.54,–,–,–,42,> 10,–,"CCOc1ccc(C[C@@H](NC(=O)c2ccncc2)C(=O)N[C@@H](Cc2csc3ccccc23)C(=O)NCc2ccc(CN)cc2)cc1 [Example 178, N-[(R)-1-[(S)-1-(4-Aminomethyl-benzylcarbamoyl)-2-benzo[b]thiophen-3-yl-ethylcarbamoyl]-2-(4-ethoxy-phenyl)-ethyl]-isonicotinamide]"
–,17.7,–,–,–,22,7.2,–,"CCOc1ccc(C[C@@H](NC(=O)c2sccc2NC(C)=O)C(=O)N[C@@H](Cc2ccccc2)C(=O)NCc2ccc(CN)cc2)cc1 [Example 179, 3-Acetylamino-thiophene-2-carboxylic acid-[(R)-1-[(S)-1-(4-aminomethyl-benzylcarbamoyl)-2-phenyl-ethylcarbamoyl]-2-(4-ethoxy-phenyl)-ethyl]-amide]"
–,61.6,–,–,–,10,> 10,–,"CCOc1ccc(C[C@@H](NC(=O)c2sccc2C)C(=O)N[C@@H](Cc2cccnc2)C(=O)NCc2ccc(CN)cc2)cc1 [Example 181, 3-Methyl-thiophene-2-carboxylic acid [(R)-1-[(S)-1-(4-aminomethyl-benzylcarbamoyl)-2-pyridin-3-yl-ethylcarbamoyl]-2-(4-ethoxy-phenyl)-ethyl]-amide]"
–,–,–,–,–,15,> 10,> 10,"CCOc1ccc(C[C@@H](NC(=O)c2ccccc2)C(=O)N[C@@H](Cc2ccccc2)C(=O)NCc2ccc(CN)c(C)c2)cc1 [Example 182, N-[(R)-1-[(S)-1-(4-Aminomethyl-3-methyl-benzylcarbamoyl)-2-phenyl-ethylcarbamoyl]-2-(4-ethoxy-phenyl)-ethyl]-benzamide]"
–,–,–,–,–,16,> 10,> 10,"CCOc1ccc(C[C@@H](NC(=O)c2sccc2N)C(=O)N[C@@H](Cc2cscn2)C(=O)NCc2ccc(CN)cc2)cc1 [Example 183, 3-Amino-thiophene-2-carboxylic acid [(R)-1-[(S)-1-(4-aminomethyl-benzylcarbamoyl)-2-thiazol-4-yl-ethylcarbamoyl]-2-(4-ethoxy-phenyl)-ethyl]-amide]"
–,–,–,–,–,10,> 10,> 10,"CCOc1ccc(C[C@@H](NC(=O)c2sccc2Cl)C(=O)N[C@@H](Cc2cscn2)C(=O)NCc2ccc(CN)cc2)cc1 [Example 184, 3-Chloro-thiophene-2-carboxylic acid [(R)-1-[(S)-1-(4-aminomethyl-benzylcarbamoyl)-2-thiazol-4-yl-ethylcarbamoyl]-2-(4-ethoxy-phenyl)-ethyl]-amide]"
–,–,–,–,–,49,> 10,> 10,"CCOc1ccc(C[C@@H](NC(=O)c2ccc(C)cc2)C(=O)N[C@@H](Cc2cscn2)C(=O)NCc2ccc(CN)cc2)cc1 [Example 185, N-[(R)-1-[(S)-1-(4-Aminomethyl-benzylcarbamoyl)-2-thiazol-4-yl-ethylcarbamoyl]-2-(4-ethoxy-phenyl)-ethyl]-4-methyl-benzamide]"
–,–,–,–,–,14,3.8,> 10,"CCOc1ccc(C[C@@H](NC(=O)c2[nH]ccc2C)C(=O)N[C@@H](Cc2csc3ccccc23)C(=O)NCc2ccc(CN)cc2)cc1 [Example 186, 3-Methyl-1H-pyrrole-2-carboxylic acid [(R)-1-[(S)-1-(4-aminomethyl-benzylcarbamoyl)-2-benzo[b]thiophen-3-yl-ethylcarbamoyl]-2-(4-ethoxy-phenyl)-ethyl]-amide]"
–,–,–,–,–,7,> 10,> 10,"CCOc1ccc(C[C@@H](NC(=O)c2sccc2N)C(=O)N[C@@H](Cc2cscn2)C(=O)NCc2ccc(CN)cc2)cc1 [Example 187, 3-Amino-thiophene-2-carboxylic acid [(R)-1-[(S)-1-(4-aminomethyl-benzylcarbamoyl)-2-thiazol-4-yl-ethylcarbamoyl]-2-(4-ethoxy-phenyl)-ethyl]-amide]"
–,0.22,–,–,–,45,7.6,–,"CCOc1ccc(C[C@@H](NC(=O)c2ccccc2)C(=O)N[C@@H](Cc2ccc(F)c(F)c2)C(=O)NCc2ccc(CN)cc2)cc1 [Example 200, N—[(R)-1-[(S)-1-(4-Aminomethyl-benzylcarbamoyl)-2-(3,4-difluoro-phenyl)-ethylcarbamoyl]-2-(4-ethoxy-phenyl)-ethyl]-benzamide]"

Compound,solubility in PO4 buffer (physchem; pH 7) [µM],solubility at 1 h [1] [µg/mL],IC50 (Human plasma kallikrein; [2]) [nM],IC50 (Human KLK1; Table 12) [µM],solubility (physchem) [µM],IC50 (Human plasma kallikrein; substrate H-DPro-Phe-Arg-AFC) [nM],IC50 (Human KLK1; Table 13) [µM],IC50 (Factor XIIa) [µM]
"CCOc1ccc(C[C@@H](NC(=O)Cc2ccccc2)C(=O)N[C@@H](Cc2ccccc2)C(=O)NCc2ccc(CN)cc2)cc1 [Example 85, (S)-N-(4-Aminomethyl-benzyl)-2-[(R)-3-(4-ethoxy-phenyl)-2-phenylacetylamino-propionylamino]-3-phenyl-propionamide]",–,–,–,–,–,485,2.9,> 10
